According to patent US10344060B2 (priority 2013, dated 2019):
Read-outs that look alike come from different tables or passages of the source.

How the values were obtained:
Test in all cases: cell-based
Format in all cases: cell-based
hNav1.7 = hNav1.7 (Homo sapiens, UniProt Q15858); details: read-out: PX hNav1.7 Tonic IC50
hNav1.4 = hNav1.4 (Homo sapiens, UniProt P35499); details: Table 12; for IC50: PatchXpress, tonic block, read-out: PX hNav1.4 Tonic IC50; for Nav1.4/Nav1.7: ratio of PX tonic IC50 values
hNav1.4, sequence (P35499 whole entry): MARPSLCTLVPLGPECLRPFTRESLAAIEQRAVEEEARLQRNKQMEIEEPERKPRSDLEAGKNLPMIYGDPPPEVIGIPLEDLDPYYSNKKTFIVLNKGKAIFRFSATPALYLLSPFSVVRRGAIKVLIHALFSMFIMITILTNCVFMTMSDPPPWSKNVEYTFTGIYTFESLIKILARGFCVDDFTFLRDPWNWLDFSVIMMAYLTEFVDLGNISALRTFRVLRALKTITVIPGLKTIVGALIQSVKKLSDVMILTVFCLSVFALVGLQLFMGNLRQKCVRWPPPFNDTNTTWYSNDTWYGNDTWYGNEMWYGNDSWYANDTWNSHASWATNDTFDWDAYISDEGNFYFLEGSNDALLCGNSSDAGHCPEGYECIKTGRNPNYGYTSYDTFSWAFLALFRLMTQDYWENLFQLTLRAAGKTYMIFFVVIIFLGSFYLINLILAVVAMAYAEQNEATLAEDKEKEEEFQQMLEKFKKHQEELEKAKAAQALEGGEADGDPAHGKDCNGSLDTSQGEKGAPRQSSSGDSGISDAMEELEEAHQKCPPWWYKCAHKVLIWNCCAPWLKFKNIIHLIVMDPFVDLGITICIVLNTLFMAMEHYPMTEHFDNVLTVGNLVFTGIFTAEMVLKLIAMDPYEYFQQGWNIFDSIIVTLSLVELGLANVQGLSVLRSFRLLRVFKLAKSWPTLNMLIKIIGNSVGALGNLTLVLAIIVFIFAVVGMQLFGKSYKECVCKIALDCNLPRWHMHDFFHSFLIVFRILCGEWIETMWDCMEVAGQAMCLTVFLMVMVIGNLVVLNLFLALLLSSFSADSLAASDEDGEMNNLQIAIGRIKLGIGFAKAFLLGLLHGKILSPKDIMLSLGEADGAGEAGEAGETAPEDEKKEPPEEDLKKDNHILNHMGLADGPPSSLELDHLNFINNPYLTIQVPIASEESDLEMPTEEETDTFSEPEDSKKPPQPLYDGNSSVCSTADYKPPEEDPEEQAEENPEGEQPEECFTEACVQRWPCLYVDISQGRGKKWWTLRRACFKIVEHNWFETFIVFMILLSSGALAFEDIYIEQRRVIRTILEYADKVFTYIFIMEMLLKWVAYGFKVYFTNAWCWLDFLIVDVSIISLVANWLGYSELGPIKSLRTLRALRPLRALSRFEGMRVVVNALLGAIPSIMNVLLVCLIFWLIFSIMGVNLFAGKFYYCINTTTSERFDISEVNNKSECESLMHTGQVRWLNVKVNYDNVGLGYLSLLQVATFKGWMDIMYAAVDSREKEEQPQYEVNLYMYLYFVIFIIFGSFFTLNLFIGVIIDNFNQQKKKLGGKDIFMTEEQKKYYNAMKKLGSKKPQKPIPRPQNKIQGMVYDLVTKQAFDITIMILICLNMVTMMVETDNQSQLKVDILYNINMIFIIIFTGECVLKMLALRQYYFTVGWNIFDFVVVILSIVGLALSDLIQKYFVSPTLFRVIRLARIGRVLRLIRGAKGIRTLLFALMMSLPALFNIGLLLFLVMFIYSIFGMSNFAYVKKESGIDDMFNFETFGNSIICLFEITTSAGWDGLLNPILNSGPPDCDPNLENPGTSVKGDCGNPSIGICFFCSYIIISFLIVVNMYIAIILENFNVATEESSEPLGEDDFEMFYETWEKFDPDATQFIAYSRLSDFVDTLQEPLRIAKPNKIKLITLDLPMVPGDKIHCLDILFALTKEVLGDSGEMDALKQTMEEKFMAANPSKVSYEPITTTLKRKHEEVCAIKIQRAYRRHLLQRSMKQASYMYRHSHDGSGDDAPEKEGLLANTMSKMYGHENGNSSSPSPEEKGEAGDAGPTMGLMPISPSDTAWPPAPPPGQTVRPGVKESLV

hNav1.6 = hNav1.6 (Homo sapiens, UniProt Q9UQD0); details: Table 15; for Nav1.6/Nav1.7: ratio of PX tonic IC50 values; for IC50: read-out: PX hNav1.6 Tonic IC50
[1] = Table 12, PatchXpress, tonic block

hNav1.7, sequence (Q15858 whole entry): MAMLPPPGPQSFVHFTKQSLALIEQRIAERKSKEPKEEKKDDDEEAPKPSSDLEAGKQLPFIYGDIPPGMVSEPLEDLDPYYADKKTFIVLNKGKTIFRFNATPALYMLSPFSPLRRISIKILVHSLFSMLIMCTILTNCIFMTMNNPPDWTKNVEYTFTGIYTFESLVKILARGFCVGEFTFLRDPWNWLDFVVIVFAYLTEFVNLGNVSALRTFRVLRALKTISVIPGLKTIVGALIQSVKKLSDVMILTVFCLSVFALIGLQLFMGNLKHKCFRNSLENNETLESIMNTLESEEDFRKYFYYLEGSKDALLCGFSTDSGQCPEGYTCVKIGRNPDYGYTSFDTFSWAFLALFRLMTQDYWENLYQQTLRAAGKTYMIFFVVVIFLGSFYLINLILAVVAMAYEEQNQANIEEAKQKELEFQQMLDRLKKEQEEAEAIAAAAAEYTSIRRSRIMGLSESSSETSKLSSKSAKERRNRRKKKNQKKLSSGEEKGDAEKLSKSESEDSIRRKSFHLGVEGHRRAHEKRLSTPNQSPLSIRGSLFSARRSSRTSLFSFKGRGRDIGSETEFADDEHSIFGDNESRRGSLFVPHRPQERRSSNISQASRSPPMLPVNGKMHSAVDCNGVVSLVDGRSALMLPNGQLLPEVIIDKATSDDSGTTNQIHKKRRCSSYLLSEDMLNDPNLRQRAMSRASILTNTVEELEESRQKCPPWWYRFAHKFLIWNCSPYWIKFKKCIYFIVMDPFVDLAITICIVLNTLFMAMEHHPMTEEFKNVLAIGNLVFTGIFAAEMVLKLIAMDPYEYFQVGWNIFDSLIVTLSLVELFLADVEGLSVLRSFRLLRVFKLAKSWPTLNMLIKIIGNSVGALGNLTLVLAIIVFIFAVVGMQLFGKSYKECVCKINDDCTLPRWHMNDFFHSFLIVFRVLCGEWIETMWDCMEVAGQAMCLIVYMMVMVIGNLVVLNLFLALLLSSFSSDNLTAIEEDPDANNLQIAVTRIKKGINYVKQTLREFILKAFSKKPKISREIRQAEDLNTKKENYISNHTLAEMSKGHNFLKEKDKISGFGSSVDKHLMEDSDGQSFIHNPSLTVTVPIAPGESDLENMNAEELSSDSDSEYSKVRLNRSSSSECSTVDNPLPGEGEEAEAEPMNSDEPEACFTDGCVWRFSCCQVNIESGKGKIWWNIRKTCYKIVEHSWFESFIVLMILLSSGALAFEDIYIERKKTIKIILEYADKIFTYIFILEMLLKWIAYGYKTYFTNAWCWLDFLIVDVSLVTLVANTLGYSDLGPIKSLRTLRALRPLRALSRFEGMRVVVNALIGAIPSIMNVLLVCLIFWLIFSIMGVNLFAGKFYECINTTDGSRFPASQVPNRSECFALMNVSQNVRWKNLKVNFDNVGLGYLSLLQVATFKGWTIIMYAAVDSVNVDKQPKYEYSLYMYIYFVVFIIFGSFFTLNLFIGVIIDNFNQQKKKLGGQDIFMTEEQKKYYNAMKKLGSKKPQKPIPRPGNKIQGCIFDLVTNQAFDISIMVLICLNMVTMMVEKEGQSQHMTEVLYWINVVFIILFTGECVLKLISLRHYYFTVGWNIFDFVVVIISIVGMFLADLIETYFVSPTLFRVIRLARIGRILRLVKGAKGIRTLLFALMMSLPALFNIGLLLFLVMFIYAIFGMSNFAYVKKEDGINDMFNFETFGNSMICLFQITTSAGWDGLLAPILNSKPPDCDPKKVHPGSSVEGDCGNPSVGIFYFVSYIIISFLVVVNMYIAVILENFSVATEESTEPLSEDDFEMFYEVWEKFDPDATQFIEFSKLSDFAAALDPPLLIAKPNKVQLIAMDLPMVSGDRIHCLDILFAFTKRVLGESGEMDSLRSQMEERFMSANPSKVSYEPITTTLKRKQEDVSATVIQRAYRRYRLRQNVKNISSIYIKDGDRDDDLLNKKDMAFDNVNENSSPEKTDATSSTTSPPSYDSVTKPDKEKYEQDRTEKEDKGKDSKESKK

What does the source list for C#CC[C@@H]1NC(=O)[C@@H]2CSSC[C@H](NC(=O)[C@H](Cc3ccc(O)cc3)NC(=O)[C@@H](N)CC#N)C(=O)N[C@@H](CCC(N)=O)C(=O)N[C@@H](CCCCN)C(=O)N[C@@H](Cc3c[nH]c4ccccc34)C(=O)N[C@@H](CCCC)C(=O)N[C@@H](Cc3c[nH]c4ccccc34)C(=O)N[C@@H]([C@@H](C)O)C(=O)N[C@H]3CSSC[C@H](NC(=O)[C@H](CCCNC(=N)N)NC(=O)[C@H](CC(C)C)NC(=O)CNC1=O)C(=O)N[C@@H](CCCCN)C(=O)N[C@@H](CC(C)C)C(=O)N[C@@H](Cc1c[nH]c4ccccc14)C(=O)N[C@H](C(=O)N[C@@H](CCCNC(=N)N)C(=O)N[C@@H](CCCCN)C(=O)N[C@@H](CCC(=O)O)C(=O)N[C@H](C(N)=O)[C@@H](C)CC)CSSC[C@H](NC(=O)[C@H](C)NC(=O)[C@H](CCCNC(=N)N)NC(=O)[C@H](CCC(=O)O)NC(=O)[C@H](CO)NC(=O)[C@H](CC(=O)O)NC3=O)C(=O)N2 [compound 732]?
IC50 (hNav1.7; [1]): 0.87 nM; IC50 (hNav1.4): 253 nM; Nav1.4/Nav1.7 (hNav1.4): 291; Nav1.6/Nav1.7 (hNav1.6): 1972; IC50 (hNav1.6): 1720 nM

For C#CC[C@@H]1NC(=O)[C@@H]2CSSC[C@H](NC(=O)[C@H](Cc3ccc(O)cc3)NC(=O)[C@@H](N)CC#N)C(=O)N[C@@H](CCC(N)=O)C(=O)N[C@@H](CCCCN)C(=O)N[C@@H](Cc3c[nH]c4ccccc34)C(=O)N[C@@H](CCCC)C(=O)N[C@@H](Cc3c[nH]c4ccccc34)C(=O)N[C@@H]([C@@H](C)O)C(=O)N[C@H]3CSSC[C@H](NC(=O)[C@H](CCCNC(=N)N)NC(=O)[C@H](CC(C)C)NC(=O)CNC1=O)C(=O)N[C@@H](CCCCN)C(=O)N[C@@H](CC(C)C)C(=O)N[C@@H](Cc1c[nH]c4ccccc14)C(=O)N[C@H](C(=O)N[C@@H](CCCNC(=N)N)C(=O)N[C@@H](CCCCN)C(=O)N[C@@H](CCC(=O)O)C(=O)N[C@H](C(N)=O)[C@@H](C)CC)CSSC[C@H](NC(=O)[C@H](CCC(=O)O)NC(=O)[C@H](CCCNC(=N)N)NC(=O)[C@H](CCCCN)NC(=O)[C@H](CO)NC(=O)[C@H](CC(=O)O)NC3=O)C(=O)N2 [compound 733], which IC50 (hNav1.7; [1]) is on record?
Its IC50 is 1.19 nM.

And the IC50 (hNav1.4)?
Its IC50 is 130 nM.

What about the Nav1.4/Nav1.7 (hNav1.4) of the same molecule?
Its Nav1.4/Nav1.7 is 109.

And the Nav1.6/Nav1.7 (hNav1.6)?
The Nav1.6/Nav1.7 was 147.

What about the IC50 (hNav1.6) of the same molecule?
The IC50 was 175 nM.

Which IC50 (hNav1.7; [1]) does the source give for C#CC[C@H](NC(=O)[C@@H](N)CCC(=O)O)C(=O)N[C@@H](Cc1ccc(O)cc1)C(=O)N[C@H]1CSSC[C@@H]2NC(=O)[C@@H]3CSSC[C@@H](C(=O)N[C@@H](CCCNC(=N)N)C(=O)N[C@@H](CCCCN)C(=O)N[C@@H](CCC(=O)O)C(=O)N[C@H](C(N)=O)[C@@H](C)CC)NC(=O)[C@H](Cc4c[nH]c5ccccc45)NC(=O)[C@H](CC(C)C)NC(=O)[C@H](CCCCN)NC(=O)[C@H](CSSC[C@H](NC(=O)[C@H]([C@@H](C)O)NC(=O)[C@H](Cc4c[nH]c5ccccc45)NC(=O)[C@H](CCCC)NC(=O)[C@H](Cc4c[nH]c5ccccc45)NC(=O)[C@H](CCCCN)NC(=O)[C@H](CCC(N)=O)NC1=O)C(=O)N[C@@H](CC(=O)O)C(=O)N[C@@H](CCC(=O)O)C(=O)N[C@@H](CCCCN)C(=O)N[C@@H](CCCNC(=N)N)C(=O)N[C@@H](C)C(=O)N3)NC(=O)[C@H](CCCNC(=N)N)NC(=O)[C@H](CC(C)C)NC(=O)CNC(=O)[C@H](CCC(=O)O)NC2=O [compound 734] here?
Its IC50 is 2.33 nM.

And the IC50 (hNav1.4)?
The IC50 was 1050 nM.

And the Nav1.4/Nav1.7 (hNav1.4)?
Its Nav1.4/Nav1.7 is 452.

What about the Nav1.6/Nav1.7 (hNav1.6) of the same molecule?
The Nav1.6/Nav1.7 was 1233.

And the IC50 (hNav1.6)?
The IC50 was 2870 nM.

Which results are given for C#CC[C@H](NC(=O)[C@@H](N)CCC(=O)O)C(=O)N[C@H]1CSSC[C@@H]2NC(=O)[C@@H]3CSSC[C@@H](C(=O)N[C@@H](CCCNC(=N)N)C(=O)N[C@@H](CCCCN)C(=O)N[C@@H](CCC(=O)O)C(=O)N[C@H](C(N)=O)[C@@H](C)CC)NC(=O)[C@H](Cc4c[nH]c5ccccc45)NC(=O)[C@H](CC(C)C)NC(=O)[C@H](CCCCN)NC(=O)[C@H](CSSC[C@H](NC(=O)[C@H]([C@@H](C)O)NC(=O)[C@H](Cc4c[nH]c5ccccc45)NC(=O)[C@H](CCCC)NC(=O)[C@H](Cc4c[nH]c5ccccc45)NC(=O)[C@H](CCCCN)NC(=O)[C@H](CCC(N)=O)NC1=O)C(=O)N[C@@H](CC(=O)O)C(=O)N[C@@H](CCC(=O)O)C(=O)N[C@@H](CCCCN)C(=O)N[C@@H](CCCNC(=N)N)C(=O)N[C@@H](C)C(=O)N3)NC(=O)[C@H](CCCNC(=N)N)NC(=O)[C@H](CC(C)C)NC(=O)CNC(=O)[C@H](CCC(=O)O)NC2=O [compound 736]?
IC50 (hNav1.7; [1]): 1.46 nM; IC50 (hNav1.4): 547 nM; Nav1.4/Nav1.7 (hNav1.4): 375; Nav1.6/Nav1.7 (hNav1.6): 1730; IC50 (hNav1.6): 2520 nM

Which IC50 (hNav1.7; [1]) does the source give for C#CC[C@H](NC(=O)[C@@H](N)CCC(=O)O)C(=O)N[C@H]1CSSC[C@@H]2NC(=O)[C@@H]3CSSC[C@@H](C(=O)N[C@@H](CCCNC(=N)N)C(=O)N[C@@H](CCCCN)C(=O)N[C@@H](CCC(=O)O)C(=O)N[C@H](C(N)=O)[C@@H](C)CC)NC(=O)[C@H](Cc4c[nH]c5ccccc45)NC(=O)[C@H](CC(C)C)NC(=O)[C@H](CCCCN)NC(=O)[C@H](CSSC[C@H](NC(=O)[C@H]([C@@H](C)O)NC(=O)[C@H](Cc4c[nH]c5ccccc45)NC(=O)[C@H](CCCC)NC(=O)[C@H](Cc4c[nH]c5ccccc45)NC(=O)[C@H](CCCCN)NC(=O)[C@H](CCC(N)=O)NC1=O)C(=O)N[C@@H](CC(=O)O)C(=O)N[C@@H](CO)C(=O)N[C@@H](CCCCN)C(=O)N[C@@H](CCCNC(=N)N)C(=O)N[C@@H](CCC(=O)O)C(=O)N3)NC(=O)[C@H](CCCNC(=N)N)NC(=O)[C@H](CC(C)C)NC(=O)CNC(=O)[C@H](CCC(=O)O)NC2=O [compound 738] here?
The IC50 was 0.563 nM.

What about the IC50 (hNav1.7; Table 15) of the same molecule?
The IC50 was 0.525 nM.

What about the IC50 (hNav1.4) of the same molecule?
Its IC50 is 246 nM.

What about the Nav1.4/Nav1.7 (hNav1.4) of the same molecule?
Its Nav1.4/Nav1.7 is 437.

What about the Nav1.6/Nav1.7 (hNav1.6) of the same molecule?
The Nav1.6/Nav1.7 was 1071.

And the IC50 (hNav1.6)?
Its IC50 is 563 nM.

With C#CC[C@H](N)C(=O)N[C@@H](CCC(=O)O)C(=O)N[C@H]1CSSC[C@@H]2NC(=O)[C@@H]3CSSC[C@@H](C(=O)N[C@@H](CCCNC(=N)N)C(=O)N[C@@H](CCCCN)C(=O)N[C@@H](CCC(=O)O)C(=O)N[C@H](C(N)=O)[C@@H](C)CC)NC(=O)[C@H](Cc4c[nH]c5ccccc45)NC(=O)[C@H](CC(C)C)NC(=O)[C@H](CCCCN)NC(=O)[C@H](CSSC[C@H](NC(=O)[C@H]([C@@H](C)O)NC(=O)[C@H](Cc4c[nH]c5ccccc45)NC(=O)[C@H](CCCC)NC(=O)[C@H](Cc4c[nH]c5ccccc45)NC(=O)[C@H](CCCCN)NC(=O)[C@H](CCC(N)=O)NC1=O)C(=O)N[C@@H](CC(=O)O)C(=O)N[C@@H](CCC(=O)O)C(=O)N[C@@H](CCCCN)C(=O)N[C@@H](CCCNC(=N)N)C(=O)N[C@@H](C)C(=O)N3)NC(=O)[C@H](CCCNC(=N)N)NC(=O)[C@H](CC(C)C)NC(=O)CNC(=O)[C@H](CCC(=O)O)NC2=O [compound 739] as the molecule, how does the IC50 (hNav1.7; [1]) read?
The IC50 was 5.55 nM.

What about the IC50 (hNav1.4) of the same molecule?
Its IC50 is 1280 nM.

And the Nav1.4/Nav1.7 (hNav1.4)?
Its Nav1.4/Nav1.7 is 231.

What about the Nav1.6/Nav1.7 (hNav1.6) of the same molecule?
The Nav1.6/Nav1.7 was 395.

What about the IC50 (hNav1.6) of the same molecule?
Its IC50 is 2190 nM.
